Assay results reported in patent publication US8642508B2, “Complex for use in stabilizing herbicidal compositions and methods for synthesizing and using” (Bayer Cropscience LP, priority 2005, dated 2014).

Key:
Type in all cases: physicochemical
[1] = Long-term storage stability, Comparative Example 3 emulsifiable concentrate (triethylamine buffer); conditions: Comparative Example 3 formulation
Experimental: An emulsifiable concentrate of fenoxaprop p-ethyl, mefenpyr diethyl, and pyrasulfotole was prepared. Triethylamine, a buffer that is not capable of complexing or forming a coordination complex or hydrogen bonding, was selected as the buffer. The mixture of Table 5 was prepared by mixing the liquid ingredients, then the solid ingredients at 50° C.
(§1) The mixture was tested for long-term storage stability by subjecting separate samples to different temperatures for eight weeks.

[2] = Long-term storage stability, Comparative Example 2 mixture (no buffer); conditions: Comparative Example 2 formulation
Experimental: A mixture of fenoxaprop p-ethyl, mefenpyr diethyl, pyrasulfotole, and fillers was prepared in similar manner as in Table 1 but without a buffer system of the invention (see Table 3).
as §1

[3] = Long-term storage stability, Comparative Example 6 mixture with bromoxynil mixed esters (no buffer); conditions: Comparative Example 6 formulation
Experimental: as §1

[4] = Long-term storage stability, Comparative Example 5 emulsifiable concentrate with bromoxynil mixed esters (triethylamine buffer); conditions: Comparative Example 5 formulation
Experimental: An emulsifiable concentrate of fenoxaprop p-ethyl, mefenpyr diethyl, pyrasulfotole and bromoxynil mixed esters was prepared. Triethylamine, a buffer that is not capable of complexing was selected as the buffer. The mixture of Table 9 was prepared by mixing the liquid ingredients, then the solid ingredients at 50° C.
as §1

[5] = Long-term storage stability, Example 4 emulsifiable concentrate with bromoxynil mixed esters (triethanolamine buffer); conditions: Example 4 formulation
Experimental: Triethanolamine, a buffer capable of complexing was selected as the buffer. The mixture of Table 7 was prepared by mixing the liquid ingredients, then the solid ingredients at 50° C.
as §1

[6] = Long-term storage stability, Comparative Example 1 emulsifiable concentrate (triethanolamine buffer); conditions: Comparative Example 1 formulation
Experimental: An emulsifiable concentrate of fenoxaprop-ethyl, mefenpyr diethyl, and pyrasulfotole and fillers was prepared. Triethanolamine, a buffer capable of hydrogen bonding, was selected as the buffer. The mixture of Table 1 was prepared by mixing the liquid ingredients, then the solid ingredients at 50° C.
as §1

[7] = Long-term storage stability, Example 8 mixture (triethanolamine, without DBSCa); conditions: Example 8 formulation
Experimental: as §1

[8] = Long-term storage stability 1 year room temperature, Example 7 emulsifiable concentrate (triethanolamine + DBSCa); conditions: Example 7 formulation; 1 year @ room temp
Experimental: In this example, an emulsifiable concentrate of fenoxaprop p-ethyl, mefenpyr diethyl, pyrasulfotole and bromoxynil mixed esters was prepared. Triethanolamine, a buffer that is capable of hydrogen bonding, was selected as the buffer. Dodecylbenzenesulfontate calcium, also known as DBSCa was also used to provide a calcium cation for the complex. The mixture of Table 13 was prepared by mixing the liquid ingredients, then the solid ingredients at 50° C.
The mixture was tested for long-term storage stability by subjecting separate samples to room temperatures for 1 year.

CCOC(=O)C1=NN(c2ccc(Cl)cc2Cl)C(C)(C(=O)OCC)C1 (centres unmarked) [Mefenpyr diethyl, mefenpyr diethyl]
Avg. Wt % active ingredient ([1]; 8 weeks @ 0° C.): 3.80 Wt %
Avg. Wt % active ingredient ([1]; 8 weeks @ 40° C.): 3.72 Wt %
change from 0° C. ([1]; 8 weeks @ 40° C.): −2.10%
Avg. Wt % active ingredient ([1]; 8 weeks @ 50° C.): 3.73 Wt %
change from 0° C. ([1]; 8 weeks @ 50° C.): −1.93%
Avg. Wt % active ingredient ([1]; 8 weeks @ room temp.): 3.77 Wt %
change from 0° C. ([1]; 8 weeks @ room temp.): −0.87%
Avg. Wt % active ingredient ([2]; 8 weeks @ 0° C.): 3.81 Wt %
Avg. Wt % active ingredient ([2]; 8 weeks @ 40° C.): 3.85 Wt %
change from 0° C. ([2]; 8 weeks @ 40° C.): −1.05%
Avg. Wt % active ingredient ([2]; 8 weeks @ 50° C.): 3.97 Wt %
change from 0° C. ([2]; 8 weeks @ 50° C.): −4.20%
Avg. Wt % active ingredient ([2]; 8 weeks @ room temp.): 4.01 Wt %
change from 0° C. ([2]; 8 weeks @ room temp.): +5.24%
Avg. Wt % active ingredient ([3]; 8 weeks @ 0° C.): 2.98 Wt %
Avg. Wt % active ingredient ([3]; 8 weeks @ 40° C.): 3.01 Wt %
change from 0° C. ([3]; 8 weeks @ 40° C.): 1.01%
Avg. Wt % active ingredient ([3]; 8 weeks @ room temp.): 3.00 Wt %
change from 0° C. ([3]; 8 weeks @ room temp.): 0.67%
Avg. Wt % active ingredient ([4]; 8 weeks @ 0° C.): 1.73 Wt %
Avg. Wt % active ingredient ([4]; 8 weeks @ 40° C.): 1.75 Wt %
change from 0° C. ([4]; 8 weeks @ 40° C.): 0.88%
Avg. Wt % active ingredient ([4]; 8 weeks @ room temp.): 1.75 Wt %
change from 0° C. ([4]; 8 weeks @ room temp.): 0.77%
Avg. Wt % active ingredient ([5]; 8 weeks @ 0° C.): 1.82 Wt %
Avg. Wt % active ingredient ([5]; 8 weeks @ 40° C.): 1.80 Wt %
change from 0° C. ([5]; 8 weeks @ 40° C.): −0.92%
Avg. Wt % active ingredient ([6]; 8 weeks @ 0° C.): 3.77 Wt %
Avg. Wt % active ingredient ([6]; 8 weeks @ 40° C.): 3.74 Wt %
change from 0° C. ([6]; 8 weeks @ 40° C.): −0.65%
Avg. Wt % active ingredient ([6]; 8 weeks @ 50° C.): 3.72 Wt %
change from 0° C. ([6]; 8 weeks @ 50° C.): −1.17%
Avg. Wt % active ingredient ([6]; 8 weeks @ room temp.): 3.76 Wt %
change from 0° C. ([6]; 8 weeks @ room temp.): −0.17%
Avg. Wt % active ingredient ([7]; 8 weeks @ 0° C.): 1.74 Wt %
Avg. Wt % active ingredient ([7]; 8 weeks @ 40° C.): 1.72 Wt %
change from 0° C. ([7]; 8 weeks @ 40° C.): −1.29%

CCCCCCCC(=O)Oc1c(Br)cc(C#N)cc1Br [Bromoxynil Octanoate, bromoxynil octanoate]
Avg. Wt % active ingredient [8]: 13.08 Wt %
Change from expected [8]: −3.083%
Avg. Wt % active ingredient ([4]; 8 weeks @ 0° C.): 5.67 Wt %
Avg. Wt % active ingredient ([4]; 8 weeks @ 40° C.): 5.02 Wt %
change from 0° C. ([4]; 8 weeks @ 40° C.): −11.52%
Avg. Wt % active ingredient ([4]; 8 weeks @ room temp.): 5.65 Wt %
change from 0° C. ([4]; 8 weeks @ room temp.): −0.41%
